One series deals with Balb/CJ mouse. Briefly: Irritation after topical application to mouse dermis (digital imaging, H&E histology). In kind it is in vivo. Particulars: for gross appearance of treated skin: 10 μM ATRA dosing equivalent, topical.
A short description of series [1]: Uptake, retention and penetration of ATRA in pig skin, Franz diffusion cell. The series is classed as in vitro ADME. How it is done:
Uptake, retention, and penetration of ATRA in pig skin were investigated using a Franz diffusion cell as described and known in the art. Skin was harvested from the flanks of adult female Yorkshire pigs 1 hour after sacrifice with subcutaneous fat removed. Skin was sectioned and frozen at −80° C. for up to six months prior to use. Skin was prepared for diffusion experiments by thawing in PBS for one hour after which time all hair on the skin was shaven off. Test samples of skin were cut to 30 mm×30 mm square samples and placed into the diffusion cell such that the top of the dermis faced a 3 mL testing retention reservoir and the underside faced a 15 mL penetration reservoir. […]
Samples were placed into the retention reservoir at a concentration of 0.1 mg/mL and followed for up to 12 hours. ATRA concentration was evaluated in both the retention and penetration reservoirs every four hours during this period via UV absorbance measurements. […] For both groups, the penetration reservoir was filled with a hydroalcoholic solution so that the ATRA that could penetrate the skin would be soluble for UV absorbance measurement. […]
Samples to be tested were placed into the retention reservoir at a concentration of 0.1 mg/mL and followed for up to 12 hours. ATRA concentration was evaluated in both the retention and penetration reservoirs every four hours during this period via UV absorbance measurements. […]

Series [2] is described as follows: Solubility of free ATRA and PATRA in different solutions (UV absorbance of supernatant). In kind it is physicochemical. How it is done: Solubility was evaluated by bringing 2 mg/ml of ATRA either free or conjugated to PVA into equilibrium at room temperature for 1 hour, followed by centrifugation of the solution at 1,500 rpm for five minutes to remove undissolved precipitate. The supernatant from this process was then used for the testing of ATRA concentration via UV absorbance as previously described.

Description for Balb/CJ mouse: Mice used for the assessment of irritation were given each of the two different treatments on 1 cm^2 regions of their dorsum, these included PATRA, ATRA, PVA, and PBS. A total of twelve mice were used in this assessment. 50 μL of 10 μM ATRA solution was placed on two 1 cm^2 shaved areas on the flanks of a Balb/CJ mouse on either side of midline. PATRA (0.092 mg mL^−1) and PVA (0.089 mg mL^−1) concentrations were controlled for 10 μM ATRA dosing. These solutions were rubbed into the skin using a cotton-tipped applicator for 30 seconds.
Tissues were fixed in zinc fixative without formalin for 48 hours. The excised tissues were cut on center and then embedded cut-face down in paraffin. Sections were taken at the wound center and at one further level of 500 μm reaching a total of 1 mm sampling length through the application site. At each level an H&E slide was stained. Unstained slides were also taken for potential IHC analysis of the tissue. All sections were 5 μm thick. Image analysis was performed using Image J.
To investigate the relative irritative nature of PATRA in comparison to ATRA, each was tested on the flanks of mice. Irritation was evaluated by digital imaging of the application site of ATRA, PATRA, or control solutions for up to five days post-application as well as by histological evaluation of inflammation after 5 days. In brief, 50 μL of 10 μM ATRA solution was placed on a 1 cm^2 shaved area on the flank of a Balb/CJ mouse. PATRA (0.092 mg mL^−1) and PVA (0.089 mg mL^−1) concentrations were controlled for 10 μM ATRA dosing. This solution is rubbed into the skin using a cotton-tipped applicator for 30 seconds. Each mouse received one of the four different material solutions applied in two locations. Inflammation and dermal changes subsequent to ATRA application were evaluated by both by digital imaging and by H&E histology.

Regarding `CC1=C(/C=C/C(C)=C/C=C/C(C)=C/C(=O)O)C(C)(C)CCC1` [ATRA, All-trans retinoic acid], in the series on Balb/CJ mouse (after 5 days), the “stratum corneum (SC) and epidermal thickness, histology” value is given as “Significantly increased”. Further, the “gross appearance of treated skin” value in the series on Balb/CJ mouse (five days post-application) was “still has a rash-like quality with a thick and calloused appearance”; with Balb/CJ mouse (three days post-application), “begins to appear inflamed after three days”. For the same molecule, the “fraction of ATRA accumulated within the treated skin” value in series [1] (12 hours of exposure, 0.1 mg/mL in retention reservoir, room temperature) is recorded as 1.9±0.9%. For the same molecule, the “ATRA in the receiving (penetration) reservoir, free ATRA versus PATRA” value in series [1] (every four hours up to 12 hours) is “much higher level of ATRA accumulation at every time point tested”. In addition, the “solubility, in words” value in series [2] (PBS 1× (pH7.4)) and in series [2] (deionized water) was “insoluble” in each case.

Source of the values: patent US11590240B2, “Nano-fibular nanoparticle polymer-drug conjugate for sustained dermal delivery of retinoids” (Massachusetts Institute of Technology, priority 2015, dated 2023).
